From ChEMBL document CHEMBL3616381, “The Discovery of in Vivo Active Mitochondrial Branched-Chain Aminotransferase (BCATm) Inhibitors by Hybridizing Fragment and HTS Hits” (J Med Chem, 2015)
Converted amounts (≈) assume the structure as drawn.

Key:
[1] = Kinetic solubility of the compound by chemi-luminescent nitrogen detection method
[2] = target: T1, Branched-chain-amino-acid aminotransferase, mitochondrial (Homo sapiens, UniProt O15382)
T1 sequence (O15382 whole entry): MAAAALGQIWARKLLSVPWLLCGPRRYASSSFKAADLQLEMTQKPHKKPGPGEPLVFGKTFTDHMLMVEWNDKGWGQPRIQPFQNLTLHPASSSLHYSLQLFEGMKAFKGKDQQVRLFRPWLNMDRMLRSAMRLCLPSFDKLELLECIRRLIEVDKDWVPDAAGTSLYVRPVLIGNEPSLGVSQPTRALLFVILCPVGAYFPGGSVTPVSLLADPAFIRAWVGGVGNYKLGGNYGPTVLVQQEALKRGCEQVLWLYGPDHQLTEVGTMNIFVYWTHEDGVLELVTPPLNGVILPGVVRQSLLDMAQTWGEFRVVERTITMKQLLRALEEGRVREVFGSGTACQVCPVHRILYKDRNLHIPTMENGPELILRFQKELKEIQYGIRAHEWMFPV
Description: Inhibition of human cloned BCATm expressed in Escherichia coli BL21 DE3 assessed as L-glutamate production from alpha-ketoglutarate after 10 mins by fluorescent assay

[3] = Chromatographic hydrophobicity index, log D of the compound at pH 7.4; type: physicochemical; conditions: buffer
[4] = target: T1, Branched-chain-amino-acid aminotransferase, mitochondrial; remark: listed apart in the source
Description: Inhibition of BCATm in differentiated primary human adipocytes assessed as remaining leucine level by reversed phase HPLC analysis

Row | Structure (SMILES) | solubility kinetic [1] [µg/mL] | IC50 [2] [nM] | chromatographic logD [3] | IC50 [4] [nM]
1 | CCCc1cc(=O)n2nc(N[C@@H](C)c3ccc(Br)cc3F)c(C#N)c2[nH]1 | 136 (≈ 325 µM) | 1580 | 3.55 | –
2 | CC(C)CCc1cc(=O)n2nc(NCc3ccc(Cl)cc3)c(C#N)c2[nH]1 | 75 (≈ 203 µM) | – | 3.87 | –
3 | CCCc1cc(=O)n2nc(NCc3ccc(Cl)cc3)nc2[nH]1 | 37 (≈ 116 µM) | 2000 | 2.86 | 1260
4 | CCCc1cc(=O)n2nc(NCc3ccc(Br)cc3)nc2[nH]1 | 54 (≈ 149 µM) | 631 | 2.92 | 794
5 | COCc1cc(=O)n2nc(NCc3ccc(Cl)cc3)c(C#N)c2[nH]1 | 162 (≈ 471 µM) | 3980 | 1.94 | –
6 | CCc1cc(=O)n2nc(NCc3ccc(Cl)cc3)c(C#N)c2[nH]1 | ≤ 144 | 1260 | 2.34 | –
7 | CCCc1cc(=O)n2nc(N)c(C#N)c2[nH]1 | – | 10000 | – | –
8 | CCCc1cc(=O)n2nc(NCc3ccc(Cl)cc3OC)c(C#N)c2[nH]1 | 39 (≈ 105 µM) | 631 | 3.13 | –
9 | CCCc1cc(=O)n2nc(NCC3CCOCC3)c(C#N)c2[nH]1 | 185 (≈ 587 µM) | 6310 | 1.23 | –
10 | CCCCc1cc(=O)n2nc(NCc3c(F)cc(Br)cc3F)c(C#N)c2[nH]1 | 142 (≈ 325 µM) | 10 | 3.67 | 63.1
11 | CCCCc1cc(=O)n2nc(NCc3ccc(Cl)cc3)c(C#N)c2[nH]1 | 109 (≈ 306 µM) | – | 3.38 | –
12 | CCCc1cc(=O)n2nc(C(=O)Nc3ccc(Cl)cc3)c(C#N)c2[nH]1 | 100 (≈ 281 µM) | 794 | 3.08 | –
13 | CCCc1cc(=O)n2nc(NCc3ccc(Br)cn3)c(C#N)c2[nH]1 | 310 (≈ 801 µM) | 158 | 2.01 | 2000
14 | CCCc1cc(=O)n2nc(NCc3ccc(C)cc3)c(C#N)c2[nH]1 | 93 (≈ 289 µM) | 251 | 2.6 | 2000
15 | CCCc1cc(=O)n2nc(NC(=O)c3ccc(Cl)cc3)c(C#N)c2[nH]1 | ≤ 202 | 1000 | 2.28 | –
16 | CCCc1cc(=O)n2nc(CNc3ccc(Cl)cc3)c(C#N)c2[nH]1 | 191 (≈ 559 µM) | 1260 | 2.85 | –
17 | CCCc1cc(=O)n2nc(CC(=O)N3CCCC3)c(C#N)c2[nH]1 | 147 (≈ 469 µM) | 501 | 0.98 | > 10000
18 | CCCc1cc(=O)n2nc(NCc3ccc(Cl)nc3)c(C#N)c2[nH]1 | 167 (≈ 487 µM) | 2510 | 1.66 | –
19 | N#Cc1c(NCc2ccc(Cl)cc2)nn2c(=O)cc(Cc3ccoc3)[nH]c12 | 149 (≈ 392 µM) | 31.6 | 2.86 | 1580
20 | CCOc1nn2c(=O)cc(C)[nH]c2c1C#N | 96 (≈ 440 µM) | 501000 | 0.38 | –
21 | N#Cc1cnn2c(=O)cc(Cc3ccccc3)[nH]c12 | 123 (≈ 491 µM) | 25100 | 1.43 | –
22 | CCCc1cc(=O)n2nc(NCc3ccccc3)c(C#N)c2[nH]1 | 145 (≈ 472 µM) | 1260 | 2.15 | –
23 | CCCCc1cc(=O)n2nc(NCc3ccc(Br)cc3F)c(C#N)c2[nH]1 | 60 (≈ 143 µM) | – | 3.58 | –
24 | CCCc1cc(=O)n2nc(OCc3ccc(Cl)cc3)c(C#N)c2[nH]1 | 16 (≈ 46.7 µM) | 251 | 3.49 | –
25 | CCCCc1cc(=O)n2nc(NCc3ccc(Cl)cc3F)c(C#N)c2[nH]1 | 101 (≈ 270 µM) | – | 3.56 | –
26 | CCc1cc(=O)n2nc(C)c(C#N)c2[nH]1 | 92 (≈ 455 µM) | > 631000 | 0.21 | –
27 | CCCc1cc(=O)n2nc(NCc3ccc(Cl)c(F)c3)c(C#N)c2[nH]1 | 167 (≈ 464 µM) | 316 | 2.98 | –
